According to patent publication US20060083754A1, “Pharmaceutical combinations comprising corticoids and immunosuppressants for treating corticoid- and/or calcineurin inhibitors-resistant diseases” (priority 2003, published 2006):

Experiments:
[1] = test system: human peripheral blood mononuclear cells (PBMC); assay: T-cell proliferation assay (BrdU ELISA), PBMC stimulated with anti-CD3 mAb + anti-CD28 mAb; assay type: cell-based; conditions: anti-CD3 mAb (0.1 μg/ml)+anti-CD28 mAb (1 μg/ml), BETA 300 nM
[2] = test system: human peripheral blood mononuclear cells (PBMC); assay: T-cell proliferation assay (BrdU ELISA), PBMC stimulated with SEB; assay type: cell-based; conditions: SEB (0.1 μg/ml), BETA 300 nM
[3] = Example 1, 200000 cells/well, HC 10 μM, ASM 30 nM
[4] = Example 2, 100000 cells/well, HC 10 μM, ASM 30 nM
[5] = Example 3, 50000 cells/well, HC 10 μM, ASM 30 nM
[6] = Example 6, 200000 cells/well, DEX 300 nM, ASM 30 nM
[7] = Example 7, 100000 cells/well, DEX 300 nM, ASM 30 nM
[8] = Example 8, 50000 cells/well, DEX 300 nM, ASM 30 nM
[9] = Example 13, 200000 cells/well, HC 10 μM, FK 30 nM
[10] = Example 14, 100000 cells/well, HC 10 μM, FK 30 nM
[11] = Example 15, 200000 cells/well, DEX 300 nM, FK 30 nM
[12] = Example 16, 100000 cells/well, DEX 300 nM, FK 30 nM
[13] = Example 17, 50000 cells/well, DEX 300 nM, FK 30 nM
[14] = Example 19, 200000 cells/well, HC 10 μM, CsA 300 nM, HC (10 μM)+CsA (30 nM), BETA (300 nM)+CsA (300 nM)
[15] = Example 20, 100000 cells/well, HC 10 μM, CsA 300 nM, HC (10 μM)+CsA (30 nM), BETA (300 nM)+CsA (300 nM)
[16] = Example 21, 50000 cells/well, HC 10 μM, CsA 300 nM, HC (10 μM)+CsA (30 nM), BETA (300 nM)+CsA (300 nM)
[17] = Example 23, 200000 cells/well, DEX 300 nM, CsA 300 nM, DEX (300 nM)+CsA (30 nM), BETA (300 nM)+CsA (300 nM)
[18] = Example 24, 100000 cells/well, DEX 300 nM, CsA 300 nM, DEX (300 nM)+CsA (30 nM), BETA (300 nM)+CsA (300 nM)
[19] = Example 25, 50000 cells/well, DEX 300 nM, CsA 300 nM, DEX (300 nM)+CsA (30 nM), BETA (300 nM)+CsA (300 nM)
[20] = Example 4, 200000 cells/well, HC 10 μM, ASM 30 nM
[21] = Example 5, 100000 cells/well, HC 10 μM, ASM 30 nM
[22] = Example 9, 200000 cells/well, DEX 300 nM, ASM 30 nM
[23] = Example 10, 100000 cells/well, DEX 300 nM, ASM 30 nM
[24] = Example 22, 200000 cells/well, HC 10 μM, CsA 300 nM, HC (10 μM)+CsA (30 nM), BETA (300 nM)+CsA (300 nM)
[25] = Example 26, 200000 cells/well, DEX 300 nM, CsA 300 nM, DEX (300 nM)+CsA (30 nM), BETA (300 nM)+CsA (300 nM)

## CCCCC(=O)O[C@]1(C(=O)CO)[C@@H](C)C[C@H]2[C@@H]3CCC4=CC(=O)C=C[C@]4(C)[C@@]3(F)[C@@H](O)C[C@@]21C [BETA, betamethasone 17-valerate]
[1]; [3]
  Normalized OD (% STIM-C): 105.2 % STIM-C
  OD: 0.808
[1]; [4]
  Normalized OD (% STIM-C): 87.3 % STIM-C
  OD: 0.796
[1]; [5]
  Normalized OD (% STIM-C): 99.4 % STIM-C
  OD: 0.873
[1]; [6]
  Normalized OD (% STIM-C): 89.2 % STIM-C
  OD: 0.703
[1]; [7]
  Normalized OD (% STIM-C): 82.4 % STIM-C
  OD: 0.692
[1]; [8]
  Normalized OD (% STIM-C): 75.4 % STIM-C
  OD: 0.794
[1]; [9]
  Normalized OD (% STIM-C): 105.2 % STIM-C
  OD: 0.808
[1]; [10]
  Normalized OD (% STIM-C): 87.3 % STIM-C
  OD: 0.796
[1]; [11]
  Normalized OD (% STIM-C): 89.2 % STIM-C
  OD: 0.703
[1]; [12]
  Normalized OD (% STIM-C): 82.4 % STIM-C
  OD: 0.692
[1]; [13]
  Normalized OD (% STIM-C): 75.4 % STIM-C
  OD: 0.794
[1]; [14]
  Normalized OD (% STIM-C): 105.2 % STIM-C
  OD: 0.808
[1]; [15]
  Normalized OD (% STIM-C): 87.3 % STIM-C
  OD: 0.796
[1]; [16]
  Normalized OD (% STIM-C): 99.4 % STIM-C
  OD: 0.873
[1]; [17]
  Normalized OD (% STIM-C): 89.2 % STIM-C
  OD: 0.703
[1]; [18]
  Normalized OD (% STIM-C): 82.4 % STIM-C
  OD: 0.692
[1]; [19]
  Normalized OD (% STIM-C): 75.4 % STIM-C
  OD: 0.794
[2]; [20]
  Normalized OD (% STIM-C): 85.0 % STIM-C
  OD: 0.900
[2]; [21]
  Normalized OD (% STIM-C): 117.6 % STIM-C
  OD: 1.001
[2]; [22]
  Normalized OD (% STIM-C): 99.7 % STIM-C
  OD: 0.902
[2]; [23]
  Normalized OD (% STIM-C): 97.4 % STIM-C
  OD: 0.955
[2]; [24]
  Normalized OD (% STIM-C): 85.0 % STIM-C
  OD: 0.900
[2]; [25]
  Normalized OD (% STIM-C): 99.7 % STIM-C
  OD: 0.902
